Results as given in ChEMBL document CHEMBL4477217, “Discovery of 3-(3-(4-(1-Aminocyclobutyl)phenyl)-5-phenyl-3H-imidazo[4,5-b]pyridin-2-yl)pyridin-2-amine (ARQ 092): An Orally Bioavailable, Selective, and Potent Allosteric AKT Inhibitor” (J Med Chem, 2016).

Assays:
[1] = target: RAC-beta serine/threonine-protein kinase (Homo sapiens, UniProt P31751); set-up: species or system Sf9
[2] = target: RAC-gamma serine/threonine-protein kinase (Homo sapiens, UniProt Q9Y243); set-up: species or system Sf9
RAC-gamma serine/threonine-protein kinase, sequence (Q9Y243 whole entry): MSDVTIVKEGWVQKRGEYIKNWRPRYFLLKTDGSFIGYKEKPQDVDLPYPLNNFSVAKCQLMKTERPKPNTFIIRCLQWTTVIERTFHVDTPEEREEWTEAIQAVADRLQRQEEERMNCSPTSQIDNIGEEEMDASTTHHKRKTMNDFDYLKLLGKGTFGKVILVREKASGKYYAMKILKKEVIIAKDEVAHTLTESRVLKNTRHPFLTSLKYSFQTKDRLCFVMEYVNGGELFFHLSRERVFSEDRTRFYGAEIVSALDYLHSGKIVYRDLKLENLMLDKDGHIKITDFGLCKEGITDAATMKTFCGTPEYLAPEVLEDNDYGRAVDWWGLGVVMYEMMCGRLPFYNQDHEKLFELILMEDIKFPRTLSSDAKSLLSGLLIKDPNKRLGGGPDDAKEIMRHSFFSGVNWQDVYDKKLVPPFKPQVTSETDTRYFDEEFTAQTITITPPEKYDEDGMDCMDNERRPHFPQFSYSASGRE

[3] = Solubility of the compound; format: physicochemical
in vitro [4] = settings: human, liver microsomes
in vitro [5] = settings: male, CD-1, mouse, liver microsomes
in vitro [6] = settings: male, Beagle, dog, liver microsomes
in vitro [7] = settings: female, Beagle, dog, liver microsomes
in vitro [8] = settings: female, CD-1, mouse, liver microsomes
[9] = Tmax in monkey at 10 mg/kg administered as single dose; format: ADME, organism-based, Macaca mulatta; settings: rhesus monkey, in vivo
Mus musculus [10] = experiment: In vivo inhibition of AKT1 phosphorylation in human AN3CA cells xenografted in NCr-M nude mouse assessed as inhibition of PRAS40 phosphorylation at Thr246 at 200 mg/kg, po after 8 hrs by Western blot analysis; format: functional; settings: AN3-CA
[11] = Drug uptake in NCr-M nude mouse plasma xenografted with human AN3CA cells at 100 mg/kg, po after 8 hr; format: ADME, organism-based
[12] = Cmax in rat at 5 mg/kg administered as single dose; format: ADME, organism-based; set-up: dose 5 mg/kg; settings: in vivo
[13] = Drug uptake in NCr-M nude mouse tumor xenografted with human AN3CA cells at 200 mg/kg, po after 8 hr; format: ADME, organism-based, Neoplasm; settings: read-out: Drug uptake
[14] = Oral bioavailability in rat at 5 mg/kg administered as single dose; format: ADME, organism-based; settings: in vivo
[15] = Tmax in rat at 5 mg/kg administered as single dose; format: ADME, organism-based; settings: in vivo
Mus musculus [16] = experiment: In vivo inhibition of AKT1 phosphorylation in human AN3CA cells xenografted in NCr-M nude mouse assessed as inhibition of PRAS40 phosphorylation at Thr246 at 100 mg/kg, po after 1 hr by Western blot analysis; format: functional; settings: AN3-CA
[17] = Drug uptake in NCr-M nude mouse plasma xenografted with human AN3CA cells at 200 mg/kg, po after 8 hr; format: ADME, organism-based
[18] = AUC (infinity) in monkey at 10 mg/kg administered as single dose; format: ADME, organism-based, Macaca mulatta; set-up: dose 10 mg/kg, time infinity; settings: rhesus monkey, in vivo
Mus musculus [19] = experiment: In vivo inhibition of AKT1 phosphorylation at Thr308 in human AN3CA cells xenografted in NCr-M nude mouse at 100 mg/kg, po after 1 hr by Western blot analysis; format: functional; settings: AN3-CA
[20] = Half life in rat at 5 mg/kg administered as single dose; format: ADME, organism-based; settings: in vivo
Mus musculus [21] = experiment: In vivo inhibition of AKT1 phosphorylation at Thr308 in human AN3CA cells xenografted in NCr-M nude mouse at 100 mg/kg, po after 8 hrs by Western blot analysis; format: functional; settings: AN3-CA
[22] = Drug uptake in NCr-M nude mouse plasma xenografted with human AN3CA cells at 100 mg/kg, po after 1 hr; format: ADME, organism-based
[23] = Oral bioavailability in monkey at 10 mg/kg administered as single dose; format: ADME, organism-based, Macaca mulatta; settings: rhesus monkey, in vivo
Mus musculus [24] = experiment: In vivo inhibition of AKT1 phosphorylation in human AN3CA cells xenografted in NCr-M nude mouse assessed as inhibition of PRAS40 phosphorylation at Thr246 at 100 mg/kg, po after 8 hrs by Western blot analysis; format: functional; settings: AN3-CA
[25] = Drug uptake in NCr-M nude mouse plasma xenografted with human AN3CA cells at 200 mg/kg, po after 1 hr; format: ADME, organism-based
Mus musculus [26] = experiment: In vivo inhibition of AKT1 phosphorylation at Ser473 in human AN3CA cells xenografted in NCr-M nude mouse at 200 mg/kg, po after 1 hr by Western blot analysis; format: functional; settings: AN3-CA
[27] = Drug uptake in NCr-M nude mouse tumor xenografted with human AN3CA cells at 100 mg/kg, po after 8 hr; format: ADME, organism-based, Neoplasm; settings: read-out: Drug uptake
[28] = Cmax in monkey at 10 mg/kg administered as single dose po; format: ADME, organism-based, Macaca mulatta; set-up: dose 10 mg/kg, route oral; settings: rhesus monkey, in vivo
Mus musculus [29] = experiment: In vivo inhibition of AKT1 phosphorylation at Ser473 in human AN3CA cells xenografted in NCr-M nude mouse at 100 mg/kg, po after 8 hrs by Western blot analysis; format: functional; settings: AN3-CA
[30] = Half life in monkey at 10 mg/kg administered as single dose; format: ADME, organism-based, Macaca mulatta; settings: rhesus monkey, in vivo
Mus musculus [31] = experiment: In vivo inhibition of AKT1 phosphorylation at Thr308 in human AN3CA cells xenografted in NCr-M nude mouse at 200 mg/kg, po after 1 hr by Western blot analysis; format: functional; settings: AN3-CA
[32] = Drug uptake in NCr-M nude mouse tumor xenografted with human AN3CA cells at 100 mg/kg, po after 1 hr; format: ADME, organism-based, Neoplasm; settings: read-out: Drug uptake
Mus musculus [33] = experiment: In vivo inhibition of AKT1 phosphorylation in human AN3CA cells xenografted in NCr-M nude mouse assessed as inhibition of PRAS40 phosphorylation at Thr246 at 200 mg/kg, po after 1 hr by Western blot analysis; format: functional; settings: AN3-CA
Mus musculus [34] = experiment: In vivo inhibition of AKT1 phosphorylation at Ser473 in human AN3CA cells xenografted in NCr-M nude mouse at 200 mg/kg, po after 8 hrs by Western blot analysis; format: functional; settings: AN3-CA
Mus musculus [35] = experiment: In vivo inhibition of AKT1 phosphorylation at Thr308 in human AN3CA cells xenografted in NCr-M nude mouse at 200 mg/kg, po after 8 hrs by Western blot analysis; format: functional; settings: AN3-CA
[36] = Oral bioavailability in mouse at 100 mg/kg; format: ADME, organism-based; settings: in vivo
[37] = Drug uptake in NCr-M nude mouse tumor xenografted with human AN3CA cells at 200 mg/kg, po after 1 hr; format: ADME, organism-based, Neoplasm; settings: read-out: Drug uptake
[38] = AUC (infinity) in rat at 5 mg/kg administered as single dose; format: ADME, organism-based; set-up: dose 5 mg/kg, time infinity; settings: in vivo
Mus musculus [39] = experiment: In vivo inhibition of AKT1 phosphorylation at Ser473 in human AN3CA cells xenografted in NCr-M nude mouse at 100 mg/kg, po after 1 hr by Western blot analysis; format: functional; settings: AN3-CA

RAC-beta serine/threonine-protein kinase, sequence (P31751 whole entry): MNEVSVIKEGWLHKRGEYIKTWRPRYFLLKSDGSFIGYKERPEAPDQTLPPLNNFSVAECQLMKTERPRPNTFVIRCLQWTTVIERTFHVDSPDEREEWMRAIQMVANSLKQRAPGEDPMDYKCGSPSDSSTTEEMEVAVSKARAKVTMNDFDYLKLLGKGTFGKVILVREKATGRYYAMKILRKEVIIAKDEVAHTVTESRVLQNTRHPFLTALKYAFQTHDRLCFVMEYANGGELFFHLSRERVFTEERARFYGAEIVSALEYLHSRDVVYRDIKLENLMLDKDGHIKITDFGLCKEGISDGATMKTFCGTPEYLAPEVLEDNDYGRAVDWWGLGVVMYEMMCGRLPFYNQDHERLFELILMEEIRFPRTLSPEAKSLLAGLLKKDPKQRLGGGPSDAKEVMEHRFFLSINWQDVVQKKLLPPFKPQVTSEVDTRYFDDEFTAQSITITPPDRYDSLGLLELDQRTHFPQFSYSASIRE

With `Cc1ccc(-n2c(-c3cccnc3N)nc3cccnc32)cc1` the IC50 [1] was 20 µM and the IC50 [2] was > 100 µM.
For `Cl.NCc1ccc(-n2c(-c3cccnc3N)nc3ccc(-c4ccccc4)nc32)cc1`, the solubility [3] was 188 µM and the half-life at 1 µM (in vitro [4]) was 39 min.
With `CC(=O)Nc1cccc(-c2ccc3nc(-c4cccnc4N)n(-c4ccc(CN)cc4)c3n2)c1.Cl` the solubility [3] was ≥ 200 µM, the half-life at 1 µM (in vitro [5]) was > 60 min and the half-life at 1 µM (in vitro [6]) was > 60 min. The half-life at 1 µM (in vitro [7]) was > 60 min and the half-life at 1 µM (in vitro [8]) was 45 min.
For `NCc1ccc(-n2c(-c3cccnc3N)nc3cc(-c4cccnc4)cnc32)cc1`, the IC50 [1] was 3.5 µM and the IC50 [2] was > 10 µM.
For `Cl.Nc1ncccc1-c1nc2ccc(-c3cccnc3)nc2n1-c1ccc(C2(N)CCC2)cc1`, the solubility [3] was 178 µM, the half-life at 1 µM (in vitro [5]) was 31 min and the half-life at 1 µM (in vitro [4]) was > 30 min. The half-life at 1 µM (in vitro [6]) was > 30 min, the half-life at 1 µM (in vitro [7]) was 21 min and the half-life at 1 µM (in vitro [8]) was 37 min.
With `Cl.Nc1ncccc1-c1nc2ccc(-c3ccccc3)nc2n1-c1ccc(C2(N)CCC2)cc1` the Tmax [9] was 4.3 h, the inhibition in vivo at 200 mg/kg (Mus musculus [10]) was 42.5% and the solubility [3] was 170 µM. For the same compound, the half-life at 1 µM (in vitro [5]) was 17 min, the concentration at 8 h [11] was 260 nM and the half-life at 1 µM (in vitro [4]) was 55 min. It also gave a Cmax [12] of 198 ng/mL, a concentration at 8 h [13] of 27.4 µM and a bioavailability [14] of 62%. The Tmax [15] was 8 h, the inhibition in vivo at 100 mg/kg (Mus musculus [16]) was 57.7% and the concentration at 8 h [17] was 1000 nM. It also gave an AUC(0-inf) [18] of 2960 ng·h/mL, an inhibition in vivo at 100 mg/kg (Mus musculus [19]) of 95% and a half-life [20] of 1020 min. For the same compound, the inhibition in vivo at 100 mg/kg (Mus musculus [21]) was 96.3%, the concentration at 1 h [22] was 2100 nM and the half-life at 1 µM (in vitro [6]) was 31 min. The bioavailability [23] was 49%, the inhibition in vivo at 100 mg/kg (Mus musculus [24]) was 35.9% and the concentration at 1 h [25] was 2700 nM. It also gave an inhibition in vivo at 200 mg/kg (Mus musculus [26]) of 99.2%, a concentration at 8 h [27] of 9.6 µM and a half-life at 1 µM (in vitro [7]) of 28 min. The Cmax [28] was 258 ng/mL, the inhibition in vivo at 100 mg/kg (Mus musculus [29]) was 98.6% and the half-life [30] was 420 min. The inhibition in vivo at 200 mg/kg (Mus musculus [31]) was 93.3%, the concentration at 1 h [32] was 21 µM and the inhibition in vivo at 200 mg/kg (Mus musculus [33]) was 50.5%. It also gave an inhibition in vivo at 200 mg/kg (Mus musculus [34]) of 99.7%, an inhibition in vivo at 200 mg/kg (Mus musculus [35]) of 90.8% and a half-life at 1 µM (in vitro [8]) of 18 min. It also gave a bioavailability [36] of 23%, a concentration at 1 h [37] of 35.8 µM and an AUC(0-inf) [38] of 5500 ng·h/mL. The inhibition in vivo at 100 mg/kg (Mus musculus [39]) was 99.2%.
For `CC(C)(C)c1ccc(-n2c(-c3cccnc3N)nc3cccnc32)cc1`, the IC50 [1] was 16 µM and the IC50 [2] was 71 µM.
In the case of `Cc1cnc2c(c1)nc(-c1cccnc1N)n2-c1ccc(CN)cc1`, the IC50 [2] is reported as > 10 µM.
With `CC(=O)Nc1cccc(-c2ccc3nc(-c4cccnc4N)n(-c4ccc(C5(N)CCC5)cc4)c3n2)c1.Cl` the solubility [3] was 160 µM, the half-life at 1 µM (in vitro [5]) was > 60 min and the half-life at 1 µM (in vitro [4]) was > 60 min. For the same compound, the half-life at 1 µM (in vitro [6]) was > 60 min, the half-life at 1 µM (in vitro [7]) was 50 min and the half-life at 1 µM (in vitro [8]) was > 60 min.
For `NCc1ccc(-n2c(-c3cccnc3N)nc3cccnc32)cc1`, the IC50 [1] was 9.3 µM and the IC50 [2] was > 100 µM.
In the case of `Cl.Nc1cccc(-c2ccc3nc(-c4cccnc4N)n(-c4ccc(C5(N)CCC5)cc4)c3n2)c1`, the solubility [3] is reported as 138 µM, the half-life at 1 µM (in vitro [5]) is reported as > 60 min and the half-life at 1 µM (in vitro [4]) is reported as > 60 min. For the same compound, the half-life at 1 µM (in vitro [6]) was > 60 min, the half-life at 1 µM (in vitro [7]) was > 60 min and the half-life at 1 µM (in vitro [8]) was > 60 min.
